Results reported in patent US20120225119A1, “THERAPEUTIC COMBINATION FOR PAINFUL MEDICAL CONDITIONS” (UCB Pharma GmbH, priority 2005, published 2012).
“Also recorded” adds a separate entry of the source.

Assays:
[1] = system: muscle pressure hyperalgesia induced by TNF; experiment: Withdrawal threshold to muscle pressure (Randall-Selitto) after TNF injection into gastrocnemius muscle; type: in vivo, rat; conditions: for full reversal of the muscle hyperalgesia: pregabalin 30 and 100 mg/kg
Procedure: (§1) Adult male Sprague Dawley rats with a body weight of 250 g to 300 g were used (supplier: Charles River, Sulzfeld, Germany). Animals were group-housed (3 animals per cage) and maintained in a room with controlled temperature (21-22° C.) and a reversed light-dark cycle (12 h/12 h) with food and water available ad libitum. All experiments were approved by the Bavarian State animal experimentation committee and carried out in accordance with its regulations.
(§2) Recombinant rat tumor necrosis factor alpha (herein referred to as TNF) was obtained from R&D Systems, Minneapolis, Minn., U.S.A. TNF was diluted in 0.9% NaCl and used in a concentration of 1 μg in 50 μl. Injections were performed in short halothane narcosis with a 30 g needle bilaterally into the gastrocnemius or into the biceps brachii muscle. All rats were used to the behavioral tests before injections and baseline values were recorded over three test days.
Mechanical withdrawal thresholds to muscle pressure were measured with an analgesimeter (Ugo Basile, Comerio, Italy). The rat was allowed to crawl into a sock which helps the rat to relax. The hind limbs were positioned such that an increasing pressure could be applied onto the gastrocnemius muscle (maximum 250 g). The pressure needed to elicit withdrawal was recorded. Means of 3 trials for each hind limb were calculated (interstimulus interval of >30 sec). Only animals with a significant TNF effect were included for further analysis.
Rats were injected with TNF into the gastrocnemius muscle at 2 pm. Eighteen hours later, rats were tested for pressure hyperalgesia pre- and post-administration of the test drug. Rats were tested for pressure hyperalgesia 30 to 60 minutes after drug administration.
(§3) The rats, initially 10 per group, were treated with either 3, 10 or 30 mg/kg lacosamide, 2 mg/kg metamizol, 30 or 100 mg/kg pregabalin, 100 mg/kg gabapentin, or the NaCl vehicle, i.p. (intraperitoneally). Volume of i.p. injections was 0.5 ml. A pilot study was performed to confirm that i.m. (intramuscular) injection of 1 μg TNF into the gastrocnemius muscle was sufficient to induce pressure hyperalgesia.
(§4) Data are shown in graphs displaying means and standard errors of the means (SEM). Pre- and post-treatment data were compared using ANOVA (analysis of variance) and a Tukey post hoc test. Means of treatment groups were compared using a one-way ANOVA and Dunnett's post hoc test. Maximal possible effects (MPE) were calculated for all types of treatment.

[2] = system: TNF-induced reduction of grip strength; experiment: Biceps muscle grip strength after TNF-induced muscle pain; type: in vivo, rat
Procedure: as §1, §2
Grip strength of the forelimbs was tested with a digital grip force meter (DFIS series, Chatillon, Greensboro, N.C., U.S.A.). The rat was positioned to grab the grid with the forelimbs and was gently pulled so that the grip strength could be recorded. Means of three trials were calculated. The effect of the TNF treatment was calculated for each animal separately and only animals with a significant TNF effect were included for further analysis.
Rats were injected with TNF into the biceps brachii muscle at 8 am. Six hours later, grip strength of the forelimbs was tested with a digital grip force meter. Test drug was administered, and grip strength was again tested after 30 to 60 minutes.
as §3, §4

[3] = system: monosodium iodoacetate-induced tactile allodynia; experiment: Tactile allodynia (von Frey filaments) in iodoacetate rat model of osteoarthritis; type: in vivo; conditions: day 3 and day 7
[4] = system: monosodium iodoacetate-induced mechanical hyperalgesia; experiment: Mechanical hyperalgesia (Randall-Selitto paw pressure) in iodoacetate rat model of osteoarthritis; type: in vivo; conditions: for paw pressure withdrawal threshold compared to iodoacetate/vehicle treated animals: day 3
[5] = system: formalin-induced flinching and licking of the affected paw; experiment: Rat formalin paw test (late phase); type: in vivo; conditions: for effect on time spent licking: lacosamide 10 mg/kg i.p.
Procedure: Rats were given an intraplantar injection of 5% formalin (50 μl) into the posterior left paw. This treatment induces a recognizable flinching and licking response of the affected paw in control animals. The number of flinches was counted for 15 minutes, beginning 20 minutes after injection of formalin. The time spent licking the affected paw was also recorded.
Male Rj: Wistar (Han) rats, 10 per group, weighing 100-130 g at the beginning of the experiments were studied per group. The test was performed blind. […]
Lacosamide (10 and 20 mg/kg), memantine (4 and 8 mg/kg), combinations of lacosamide (10 and 20 mg/kg) with memantine (4 and 8 mg/kg), and vehicle were administered i.p. 10 minutes before injection of formalin.
Lacosamide (10 and 20 mg/kg), naproxen (8 and 16 mg/kg), combinations of lacosamide (10 and 20 mg/kg) with […] (8 and 16 mg/kg), and vehicle were administered i.p. 10 minutes before injection of formalin. Morphine (8 mg/kg) was included as a comparative treatment.

[6] = lacosamide 10 and 30 mg/kg i.p.
[7] = pregabalin 30 and 100 mg/kg i.p.

SMILES: NCC1(CC(=O)O)CCCCC1 [Gabapentin]
- MPE (maximal possible effect) on muscle pressure hyperalgesia, FIG. 2 ([1]; gabapentin 100 mg/kg i.p.): significantly different from vehicle
- reversal of muscular mechanical hyperalgesia (withdrawal threshold to muscle pressure) ([1]; gabapentin 100 mg/kg i.p.): significant reversal
- full reversal of the muscle hyperalgesia ([1]; gabapentin 100 mg/kg i.p.): Neither pregabalin nor gabapentin led to a full reversal
- MPE (maximal possible effect) on biceps muscle grip strength, FIG. 4 ([2]; 100 mg/kg i.p.): significantly different from vehicle
- reversal of TNF-induced reduction of grip strength ([2]; 100 mg/kg i.p.): significant reversal; also recorded: improved grip strength

SMILES: COC[C@@H](NC(C)=O)C(=O)NCc1ccccc1 [Lacosamide, (R)-2-acetamido-N-benzyl-3-methoxypropionamide]
- reversal of muscular mechanical hyperalgesia (withdrawal threshold to muscle pressure) ([1]; lacosamide 30 mg/kg i.p., 30 to 60 minutes after drug): complete reversal; also recorded: full reversal
- muscle hyperalgesia induced by TNF injection in the paw pressure test ([1]; lacosamide 3, 10 and 30 mg/kg i.p.): dose-dependently improved
- MPE (maximal possible effect) on muscle pressure hyperalgesia, FIG. 2 [1, 6]: significantly different from vehicle
- grip strength test indicative of mechanical allodynia ([2]; lacosamide 10 mg/kg i.p.): reversed the effect of TNF
- MPE (maximal possible effect) on biceps muscle grip strength, FIG. 4 [2, 6]: significantly different from vehicle
- reversal of TNF-induced reduction of grip strength [2, 6]: significant reversal
- tactile allodynia of iodoacetate-treated rats ([3]; lacosamide 30 mg/kg p.o.): improved
- paw pressure withdrawal threshold compared to iodoacetate/vehicle treated animals ([4]; lacosamide 3 mg/kg p.o.): increase in paw pressure withdrawal threshold
- mechanical hyperalgesia ([4]; lacosamide 10 mg/kg p.o., day 14): did not show a statistically significant effect
- mechanical hyperalgesia ([4]; lacosamide at all doses tested (3, 10 and 30 mg/kg p.o.), day 7): reduced mechanical hyperalgesia
- mechanical hyperalgesia during the post-inflammatory period ([4]; lacosamide p.o.): inhibited mechanical hyperalgesia
- effect on time spent licking ([5]; Example 6): no clear effects
- effect on time spent licking ([5]; Example 7): no clear effects
- effect on number of flinches as compared with vehicle controls ([5]; Example 7, lacosamide 10 and 20 mg/kg i.p.): did not clearly affect

SMILES: CC12CC3CC(C)(C1)CC(N)(C3)C2 [Memantine]
- effect on number of flinches as compared with vehicle controls ([5]; Example 6, memantine 4 and 8 mg/kg i.p.): did not clearly affect

SMILES: CN1CC[C@]23c4c5ccc(O)c4O[C@H]2[C@@H](O)C=C[C@H]3[C@H]1C5 [Morphine]
- tactile allodynia of iodoacetate-treated rats ([3]; morphine 3 mg/kg s.c.): improved
- paw pressure withdrawal threshold compared to iodoacetate/vehicle treated animals ([4]; morphine 3 mg/kg s.c.): increase in paw pressure withdrawal threshold
- mechanical hyperalgesia ([4]; morphine 3 mg/kg s.c., day 7): reduced mechanical hyperalgesia
- effect on number of flinches and time spent licking as compared with vehicle controls ([5]; Example 4, morphine 2 and 4 mg/kg i.p., effects did not reach statistical significance): dose-dependently decreased
- effect on flinching and time spent licking as compared with vehicle controls ([5]; Example 7, morphine 8 mg/kg i.p.): eliminated flinching and the time spent licking

SMILES: COc1ccc2cc([C@H](C)C(=O)O)ccc2c1 [Naproxen]
- effect on number of flinches or time spent licking as compared with vehicle controls ([5]; Example 7, naproxen 8 and 16 mg/kg i.p.): did not clearly affect

SMILES: O=C(O)Cc1ccccc1Nc1c(Cl)cccc1Cl [diclofenac]
- paw pressure withdrawal threshold compared to iodoacetate/vehicle treated animals ([4]; diclofenac 30 mg/kg s.c.): increase in paw pressure withdrawal threshold
- mechanical hyperalgesia ([4]; diclofenac 30 mg/kg s.c., day 7): reduced mechanical hyperalgesia

SMILES: Cc1c(N(C)CS(=O)(=O)[O-])c(=O)n(-c2ccccc2)n1C.[Na+] [metamizol]
- MPE (maximal possible effect) on muscle pressure hyperalgesia, FIG. 2 ([1]; metamizol 2 mg/kg i.p.): significantly different from vehicle
- reversal of muscular mechanical hyperalgesia (withdrawal threshold to muscle pressure) ([1]; metamizol 2 mg/kg i.p.): complete reversal
- MPE (maximal possible effect) on biceps muscle grip strength, FIG. 4 ([2]; metamizol 2 mg/kg i.p.): significantly different from vehicle
- reversal of TNF-induced reduction of grip strength ([2]; metamizol 2 mg/kg i.p.): significant reversal

SMILES: CC(C)C[C@H](CN)CC(=O)O [pregabalin]
- MPE (maximal possible effect) on muscle pressure hyperalgesia, FIG. 2 [1, 7]: significantly different from vehicle
- reversal of muscular mechanical hyperalgesia (withdrawal threshold to muscle pressure) [1, 7]: significant reversal
- full reversal of the muscle hyperalgesia ([1]; gabapentin 100 mg/kg i.p.): Neither pregabalin nor gabapentin led to a full reversal
- MPE (maximal possible effect) on biceps muscle grip strength, FIG. 4 ([2]; 100 mg/kg i.p.): significantly different from vehicle
- reversal of TNF-induced reduction of grip strength ([2]; 100 mg/kg i.p.): significant reversal; also recorded: improved grip strength
